Experimental data taken from US20240350456A1, “COMPOSITIONS AND METHODS FOR DIAGNOSING AND TREATING INFLAMMATORY CONDITIONS” (RUTGERS, THE STATE UNIVERSITY OF NEW JERSEY, priority 2023, published 2024).

What was measured:
[1] = tested on: mouse intestinal organoids; test: Organoid permeability assay with 4 kDa FITC-dextran, LPS with or without metabolites; type: cell-based; details: ex vivo organoids
Protocol: Intestinal organoids were isolated as previously described (Das et al., 2015; Pearce et al., 2018). Briefly, crypts were isolated from small intestine of conventional house C57BL/6 male mice (Taconic Laboratories, Hudson, NY) by shaking in isolation buffer (2 mM EDTA in PBS), then, crypts were harvested, processed, and suspended in crypt culture medium (CCM), which consisted of advanced DMEM/F12 (Life Technologies, Carlsbad, CA) supplemented with serum-free B27 (1:50; Life Technologies), N2 (1:100; Life Technologies), N-acetylcysteine (1 mM; Sigma-Aldrich, St. Louis, MO), recombinant murine epithelial growth factor (EGF, 50 ng/ml; Peprotech, Rocky Hill, NJ), Noggin (100 ng/ml; Peprotech), R-Spondin (500 ng/ml; Peprotech), Glutamax-I supplement (1:100; Life Technologies), penicillin/streptomycin (500 μg/ml; Life Technologies), and HEPES ([…]; Life Technologies). Crypts were resuspended in 70% Matrigel (density ˜450 crypts per dome, 2 domes per well in 24-well plate) and allowed to solidify at 37° C. for 20 min. CCM (1.5 mL) was then added to each well. Cultures were incubated in a humidified incubator at 37° C., and CCM was changed daily. Intestinal organoid treatment with LPS and metabolites
(§1) We had 2 series of metabolite-treated organoid experiments, i.e., 1) organoid from conventional C57BL6 mice and 2) Ocln KO and littermate WT control as a gift from Prof. Jerrold Turner (Harvard University). […] Seeding is designated as day 0. On day 3 of culture, the existing media in the wells were completely removed before adding treatments. LPS (1 μg/mL) with or without metabolites, i.e., IPA (0.1 mM) (Li et al., 2021), IAM (200 μM) (Vyhlidalova et al., 2020), MNA (12 ng/ml) (Liu et al., 2015), CARN (20 mM) (Boldyrev et al., 2013) or ASA (1 μM) (Erez et al., 2011) were each added in CCM at known physiological concentrations, incubated for 48 hours, thereafter, organoid was harvested for RNA extraction, and paraformaldehyde fixation for immunostaining.
Permeability assays followed earlier work (Pearce et al., 2018). Briefly, all media were removed and then organoid were incubated with CCM containing 4 kDa FITC-dextran (Sigma-Aldrich, St. Louis, MO, Cat. #46944) at a final concentration of 1.25 µM for 30 minutes at 37° C. and at 5% CO2. […] A fluorescent microscope (Nikon Eclipse TI, NY) at a 10× magnification was used to observe and capture the fluorescence within the lumen of the organoids. Using the same area as the lumen, three different background samples are measured randomly around the lumen. The three background samples measured are averaged and then subtracted from the measured fluorescence of the lumen. […] The quantification of the fluorescence was conducted using the ImageJ 1.53 (NIH, Bethesda, MD).

[2] = tested on: Tff3 and Lyz1 (goblet and Paneth cells); test: Organoids: goblet and Paneth cell transcripts (Tff3, Lyz1) and cell numbers; type: cell-based, mouse; details: enteroids
Protocol: as §1
Total RNA was extracted from the intestinal organoids using a commercially available kit (RNeasy Microkit; Qiagen, MD, Cat. #74004) following manufacturer's instructions. mRNA samples were converted to cDNA using Bio-Rad's iScript Reverse Transcription Supermix for RT-qPCR (Bio-Rad Laboratories, Hercules, CA, Cat. #1708840). cDNA was then used for RT-qPCR (Mx3000P. Stratagene, La Jolla, CA) to analyze several genes using Maxima SYBR Green qPCR Master Mix (Thermo Fisher Scientific, Waltham, MA) and primers (Integrated DNA Technologies, Coralville, IA). Thermal profile for three-step cycling was 10 min at 95° C. for initial denaturation; then 40 cycles of 15 sec at 95° C. for denaturation, 30 sec at 65° C. for annealing, and 30 sec at 75° C. for extension. Primers used are as follows: β-actin (Actb), forward 5′-[…]-3′ (SEQ ID NO: 5), reverse 5′-[…]-3′ (SEQ ID NO: 6); ZO-1 (Tjp1), forward 5′-[…]-3′ (SEQ ID NO: 7), reverse 5′-[…]-3′ (SEQ ID NO: 8), Ocln, forward 5′-[…]-3′ (SEQ ID NO: 9), reverse 5′-[…]-3′ (SEQ ID NO: 10); Lyz1, forward 5′-ATGGCTACCGTGGTGTCAAG-3′ (SEQ ID NO: 11), reverse 5′-CGGTCTCCACGGTTGTAGTT-3′ (SEQ ID NO: 12); Tff3, forward 5′-TAATGCTGTTGGTGGTCCTG-3′ (SEQ ID NO: 13), reverse 5′-CAGCCACGGTTGTTACACTG-3′ (SEQ ID NO: 14). All samples were normalized to β actin expression. Gene expression levels are depicted as fold change relative to the control group.
Immunocytochemistry followed earlier work (Pearce et al., 2018). Briefly, organoids were extracted from Matrigel by using cell recovery solution (Corning, Cat. No. 354253), processed then fixed in 4% paraformaldehyde for 15 min and dehydrated with 70% ethanol and kept in 4° C. until embedded in paraffin. On the day of embedding, organoids were gently spun down to a pellet (250 g for 5 min), then the supernatant was removed, the pellet resuspended in agarose and embedded in paraffin. […]

Row | Structure (SMILES) | disruption of the gut barrier, fluorescence microscopy (FIG. 11M) [1] | goblet and Paneth cell transcripts and cell numbers [2]
1 | NC(=O)Cc1c[nH]c2ccccc12 [Indole-3-acetamide, indole-3-acetamide] | prevented disruption of the gut barrier | reduced goblet and Paneth cell transcripts as well as cell numbers
2 | C[n+]1cccc(C(N)=O)c1 [Methylnicotinamide, 1-methynicotinamide] | prevented disruption of the gut barrier | reduced goblet and Paneth cell transcripts as well as cell numbers
